# Source: PubChem BioAssay (NCI)
#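 In this assay, cells in 96-well plates receive the compound at five concentrations for 48 hours. Endpoints are linearly interpolated between the surrounding concentrations. Abbreviation: GI50, concentration required for 50% inhibition of growth. At the TGI there is no net growth.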
# Experiments:
# Experiment in all cases: NCI tumour cell line growth inhibition, 48 h
# HCT-15 colon = test system: HCT-15 colon
# IGROV1 ovarian = test system: IGROV1 ovarian
# M14 melanoma = test system: M14 melanoma
# MOLT-4 leukemia = test system: MOLT-4 leukemia
# NCI-H23 lung = test system: NCI-H23 lung
# SR leukemia = test system: SR leukemia
# TK-10 renal = test system: TK-10 renal
# U251 CNS = test system: U251 CNS
# HCC-2998 colon = test system: HCC-2998 colon
# PC-3 prostate = test system: PC-3 prostate
Compound,TGI (HCT-15 colon) [µM],TGI (IGROV1 ovarian) [µM],TGI (M14 melanoma) [µM],TGI (MOLT-4 leukemia) [µM],TGI (NCI-H23 lung) [µM],TGI (SR leukemia) [µM],TGI (TK-10 renal) [µM],TGI (U251 CNS) [µM],TGI (HCC-2998 colon) [µM],GI50 (M14 melanoma) [µM],GI50 (SR leukemia) [µM],GI50 (TK-10 renal) [µM],GI50 (HCC-2998 colon) [µM],GI50 (HCT-15 colon) [nM],GI50 (IGROV1 ovarian) [µM],GI50 (MOLT-4 leukemia) [nM],GI50 (NCI-H23 lung) [nM],GI50 (U251 CNS) [µM],GI50 (PC-3 prostate) [µM],TGI (PC-3 prostate) [µM]
COC[C@@H](N=CN1CCc2cc(OC)c(OC)cc2[C@@H]1C)C(C)(C)C,> 100,> 100,> 100,> 100,> 100,> 100,> 100,> 100,,,,,,,,,,,,
NC1CCCCC1.[O]=[Ge].[O]=[Ge].[O]=[Ge][OH].[O]=[Ge][OH],> 100,> 100,> 100,> 100,> 100,> 100,> 100,,> 100,> 100,> 100,> 100,,,,,,,,
O=C(c1ccc(Cl)cc1)c1ccc(OCCCCCCCCCCOc2ccc(C(=O)c3ccc(Cl)cc3)cc2)cc1,> 100,> 100,,> 100,> 100,,> 100,> 100,> 100,,,,,,,,,,,
NCCCOCC(=O)O,> 100,> 100,,> 100,> 100,> 100,> 100,> 100,> 100,,,,,,,,,,,
O=C(Nc1ccc(Cl)cc1Cl)C(=O)C(C(=O)c1ccc2ccccc2c1)C1OC(=O)c2ccccc21 (stereo unspecified),42.3,57.7,28,,13.1,,,16.2,,,,,,,,,,,,
COC(=O)C(C(=O)C(=O)Nc1ccc(C(F)(F)F)cc1[N+](=O)[O-])c1csc(-n2nc(-c3ccccc3)cc2-c2ccccc2)n1 (stereo unspecified),> 100,> 100,> 100,> 100,> 100,> 100,> 100,> 100,> 100,,,,,,,,,,,
O=C([CH-]C(=O)c1ccccc1)c1ccccc1.O=C([CH-]C(=O)c1ccccc1)c1ccccc1.O=C([CH-]C(=O)c1ccccc1)c1ccccc1.[Nd+3].[OH3+],53.6,49.8,21.2,12.5,13.3,,74.7,> 100,19,6.89,,8.51,4.73,8700,6.72,2240,2970,9.22,,
CC1(C)C(=O)C(C)(C)C1=NN,> 100,> 100,> 100,> 100,> 100,> 100,> 100,> 100,> 100,,,,,,,,,,,
O=C(c1ccccc1)C1CCCCN1C(=O)c1ccccc1 (stereo unspecified),> 100,> 100,> 100,> 100,,> 100,> 100,> 100,> 100,,,,,,,,,,,
CCOC(=O)/C(O)=C/c1cc(OC)cc(=O)o1,> 100,> 100,> 100,> 100,> 100,,> 100,> 100,> 100,,,,,,,,,,,
OCCCOC(c1ccccc1)(c1ccccc1)c1ccccc1,> 100,> 100,> 100,> 100,> 100,> 100,> 100,> 100,> 100,,,,,,,,,,,
Oc1cc(O)c(Oc2cccc(O)c2O)c(O)c1,> 100,> 100,> 100,> 100,> 100,,> 100,> 100,> 100,,,,,,,,,,,
C1C[OH+]CC[OH+]CCNCC[OH+]CC[OH+]CCN1.[Cl-].[Pt+4],,> 100,> 100,> 100,> 100,,> 100,> 100,> 100,> 100,,> 100,> 100,,> 100,> 100000,> 100000,> 100,,
O=C(O)C1C2CCC(O2)C1C(=O)N1CCCCC1 (stereo unspecified),26.1,74.6,26.2,20.6,33.4,14.2,8.42,17,11.9,,,,,,,,,,,
O=[N+]([O-])c1ccc(S(=O)Cc2ccccc2)c([N+](=O)[O-])c1 (stereo unspecified),3.88,33.9,4.84,4.88,8.91,,3.16,24.3,30.2,1.81,,1.78,16.6,1850,14.1,2100,2540,11.4,14.6,30.9
CC1CCP(=O)(c2ccccc2)c2ccccc21 (stereo unspecified),> 100,> 100,> 100,75.4,> 100,96.9,> 100,53.3,> 100,,,,,,,,,,,
CC(=O)NNc1nc(C)c(C(=O)NNC(=O)C(=O)Nc2c(C)cccc2C)s1,> 100,> 100,> 100,80.1,60.1,,> 100,> 100,> 100,,,,,,,,,,,
COc1ccccc1/C=C1\CCC(CCN(C)C)(C2=CCCC2)C1=O (stereo unspecified),61.8,28.6,31.3,54.3,> 100,52.3,37.5,31.1,31.9,,,,,,,,,,,
CCN(CC)CCNc1ccc([N+](=O)[O-])c2sc3ccccc3c(=O)c12,7.59,1.02,2.85,1.87,2.78,,2.24,2.01,,1.36,,0.624,,1700,0.285,386,1230,0.607,1.05,2.47
CC1OC(OCC2OC(Oc3c(-c4ccc(O)cc4)oc4cc(O)cc(O)c4c3=O)C(OC3OC(C)C(O)C(O)C3O)C(O)C2O)C(O)C(O)C1O (stereo unspecified),> 56.8,> 100,> 100,> 100,> 100,> 100,> 100,> 100,> 100,,,,,,,,,,,
CCCNCCCC(NC(C)=O)C(=O)NCc1ccccc1 (stereo unspecified),> 100,> 100,> 100,> 100,> 100,,> 100,> 100,> 100,,,,,,,,,,,
